target: MAGE-A11:PCF11 (Homo sapiens (Human), UniProt P43364); test: TR-FRET single point screening at 15 μM; type: binding; design: unit not given here; conditions: single point TR-FRET screening at 15 μM against MAGE-A11:PCF11
Method in brief: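 Single-point screen at 15 μM (0.25% DMSO) measuring disruption of GST-MAGEA11 (5 nM) binding to FAM-PCF11_4 peptide (200 nM) detected by Tb-anti-GST (5 nM). Buffer 50 mM Tris pH 7.5, 20 mM MgCl2, 0.1 mg/ml BSA, 1 mM DTT; 90 min at ~25 °C; 520/490 nm ratio converted to % inhibition versus controls.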

Chain of MAGE-A11:PCF11 (P43364 218-429): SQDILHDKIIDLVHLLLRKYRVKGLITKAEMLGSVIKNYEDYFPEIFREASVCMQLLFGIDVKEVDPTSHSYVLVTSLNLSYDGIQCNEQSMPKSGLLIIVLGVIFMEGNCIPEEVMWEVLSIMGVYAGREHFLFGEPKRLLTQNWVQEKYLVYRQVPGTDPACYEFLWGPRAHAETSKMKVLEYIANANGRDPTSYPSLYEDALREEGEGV

| SMILES | TR-FRET signal |
| --- | --- |
| CCOc1ccc2ncc(S(=O)(=O)c3ccc(C)c(C)c3)c(N3CCN(C)CC3)c2c1 [SJ000247354] | −14.05 |
| Cc1ccc(S(=O)(=O)c2cnc3ccc(F)cc3c2N2CCN(C)CC2)cc1C [SJ000247344] | −7.627 |
| CCN(CC)CC(=O)Nc1c2c(nc3ccccc13)CCC2 [SJ000049655] | 0.6542 |
| CCN1CCN(c2c(S(=O)(=O)c3ccc(Cl)cc3)cnc3ccc(C)cc23)CC1 [SJ000083967] | −3.098 |
| COc1ccc2ncc(S(=O)(=O)c3ccccc3)c(N3CCN(c4ccccc4)CC3)c2c1 [SJ000083974] | −133 |
| O=S(=O)(c1ccccc1)c1cnc2ccc(Cl)cc2c1N1CCN(Cc2ccccc2)CC1 [SJ000247242] | −30.28 |
| COc1ccc(O)c(CN(CCCCNc2ccnc3cc(Cl)ccc23)Cc2ccccc2)c1 [SJ000312696] | 6.634 |
| CCOc1ccc2ncc(S(=O)(=O)c3ccc(C)cc3)c(N3CCN(CC)CC3)c2c1 [SJ000083964] | −5.899 |
| COc1ccc(S(=O)(=O)N2CCN(c3ccnc4cc(Cl)ccc34)CC2)cc1 [SJ000199955] | −32.07 |
| CCOc1ccc2ncc(S(=O)(=O)c3ccccc3)c(N3CCN(C)CC3)c2c1 [SJ000083948] | −3.938 |
| Cc1cc(NC(=O)CN2CCN(C(=O)c3ccco3)CC2)c2ccccc2n1 [SJ000111679] | −1.072 |
| CCCN(CCCNc1c2ccc(Cl)cc2nc2ccc(OC)cc12)Cc1ccc[nH]1 [SJ000520923] | −271 |
| Clc1ccc2c(NCCCCN(CCOCc3ccccc3)Cc3ccccc3)ccnc2c1 [SJ000357543] | −15.92 |
| CCCN(CCCCNc1ccnc2cc(Cl)ccc12)Cc1sccc1C [SJ000311199] | 6.494 |
| COc1ccc2nc3cc(Cl)ccc3c(NCCCNCc3ccc(C)s3)c2c1 [SJ000523029] | −304.8 |
| Oc1ccc(Br)cc1CN1CCC(Nc2ccnc3cc(Cl)ccc23)CC1 [SJ000311181] | −1.209 |
| COc1ccc2nc3cc(Cl)ccc3c(NCCCNCc3ccccn3)c2c1 [SJ000523024] | −255.3 |
| CCC(C)CN(CCCCNc1ccnc2cc(Cl)ccc12)Cc1ccccc1 (stereo not shown) [SJ000361208] | 35.37 |

| SMILES | TR-FRET signal |
| --- | --- |
| CCOC(=O)c1cnc2ccc(C)cc2c1NCCN1CCOCC1 [SJ000027268] | −0.3915 |
| CCOc1ccc2ncc(S(=O)(=O)c3ccccc3)c(N3CCN(c4ccccc4)CC3)c2c1 [SJ000083975] | −12.06 |
| CCOc1ccc2ncc(C(=O)c3ccccc3)c(N3CCN(CC)CC3)c2c1 [SJ000247283] | −0.2733 |
| CCOC(=O)c1ccc2ncc(C(=O)OCC)c(NCCN3CCOCC3)c2c1 [SJ000031347] | 0.6542 |
| COc1ccccc1N1CCN(c2c(S(=O)(=O)c3ccc(Cl)cc3)cnc3ccc(C)cc23)CC1 [SJ000117070] | −15.37 |
| Clc1ccc2c(NCCCCN(Cc3ccccc3)Cc3ccncc3)ccnc2c1 [SJ000361190] | −9.945 |
| CCOc1ccc2ncc(C(=O)c3ccc(C)cc3)c(N3CCN(CC)CC3)c2c1 [SJ000247284] | −14.25 |
| CCOc1ccc2ncc(C(=O)c3ccc(C)cc3)c(N3CCN(C)CC3)c2c1 [SJ000247254] | −10.61 |
| COc1ccc2nc3cc(Cl)ccc3c(NCCCNCc3ccc4c(c3)OCO4)c2c1 [SJ000361085] | −363.3 |
| CN1CCN(c2c(S(=O)(=O)c3ccccc3)cnc3ccc(Cl)cc23)CC1 [SJ000083950] | −5.374 |
| COc1ccc2ncc(C(=O)c3ccccc3)c(N3CCN(C)CC3)c2c1 [SJ000247245] | −2.393 |
| CCc1ccc(S(=O)(=O)c2cnc3ccccc3c2N2CCN(c3ccccc3OC)CC2)cc1 [SJ000117069] | −47.44 |
| Clc1ccc2c(NCCCCN(Cc3ccccc3)Cc3csc4ccccc34)ccnc2c1 [SJ000520446] | 33.98 |
| COc1ccc(CN(CCCCNc2ccnc3cc(Cl)ccc23)Cc2ccccc2)cc1OC [SJ000522728] | 0.05797 |
| CCN(CCO)CCCC(C)Nc1ccnc2cc(Cl)ccc12 (stereo not shown) [SJ000286026] | 3.702 |
| COC(=O)c1ccc(CNCCCNc2c3ccc(Cl)cc3nc3ccc(OC)cc23)cc1 [SJ000522957] | −133 |
| CCc1nc2ccccc2c(NC(=O)CNC(C)(C)CC(C)(C)C)c1C [SJ000049110] | −0.6045 |
| Clc1ccc2c(NC3CCN(CC4CCCCC4)CC3)ccnc2c1 [SJ000523085] | 15.43 |

same assay, conditions: single point TR-FRET screening of quinoline compounds against MAGE-A11:PCF11; 15 μM

| SMILES | TR-FRET signal |
| --- | --- |
| CCCN(CCCNc1ccnc2cc(Cl)ccc12)CCC(C)c1ccccc1 (stereo not shown) [SJ000357573] | 24.98 |
| Cc1cc(C)c(CN(CCCNc2ccnc3cc(Cl)ccc23)Cc2ccccc2)c(C)c1 [SJ000361169] | 31.19 |
| COc1ccc2nc3cc(Cl)ccc3c(NCCCNCc3cccc(OC(F)(F)F)c3)c2c1 [SJ000520988] | −73.54 |
| CCCN(CCCNc1ccnc2cc(C(F)(F)F)ccc12)Cc1cc2ccccc2o1 [SJ000520479] | −20.41 |
| CCCN(CCCCCC(=O)OC)CCCNc1c2ccc(Cl)cc2nc2ccc(OC)cc12 [SJ000575151] | −37.41 |
| CCCN(CCCNc1ccnc2cc(Cl)ccc12)Cc1ccc(Cl)c([N+](=O)[O-])c1 [SJ000522761] | 16.95 |
| CCCN(CCCNc1ccnc2cc(Cl)ccc12)Cc1c(F)cccc1OC [SJ000357499] | 19.4 |
| CCCN(CCCNc1ccnc2cc(Cl)ccc12)CCCSC [SJ000357576] | 7.824 |
| CCCN(CCCNc1ccnc2cc(C(F)(F)F)ccc12)Cc1ccc(OC)c(F)c1 [SJ000521013] | 21.76 |
| FC(F)(F)c1ccccc1CN(CCCNc1ccnc2cc(Cl)ccc12)Cc1ccccc1 [SJ000361168] | 2.509 |
| Cc1ccsc1CN(CCCNc1ccnc2cc(Cl)ccc12)Cc1ccccc1 [SJ000357440] | 10.9 |
| CCCN(CCCNc1c2ccc(Cl)cc2nc2ccc(OC)cc12)Cc1ccc(F)c(F)c1 [SJ000520942] | 0.9703 |
| CCCCNCCCNc1ccnc2cc(Cl)ccc12 [SJ000521027] | 8.454 |
| Clc1ccc(Oc2ccc3c(NCCCNCc4ccco4)ccnc3c2)cc1 [SJ000311226] | 37.65 |
| CCCN(CCCNc1ccnc2cc(Cl)ccc12)Cc1ccc(-c2ccccc2)cc1 [SJ000523039] | 30.23 |
| Clc1ccc2c(NCCCN(Cc3ccccc3)Cc3ccc4c(c3)OCO4)ccnc2c1 [SJ000522719] | 9.001 |
| CCCCN(CCCNc1ccnc2cc(Cl)ccc12)Cc1ccccc1 [SJ000357579] | 19.31 |
| c1coc(CNCCCNc2ccnc3cc(CC4CCCCC4)ccc23)c1 [SJ000311250] | 40.66 |
| CCCN(CCCNc1ccnc2cc(Cl)ccc12)Cc1cncc(Br)c1 [SJ000523004] | 4.828 |
| CSC(C)CCNCCCNc1ccnc2cc(Cl)ccc12 (stereo not shown) [SJ000361121] | 13.5 |
| COc1ccc2nc3cc(Cl)ccc3c(NCCCNCc3cccc(C)c3)c2c1 [SJ000522956] | −7.089 |
| COc1ccccc1Oc1ccc2c(NCCCNCc3ccco3)ccnc2c1 [SJ000311210] | 24.56 |

| SMILES | TR-FRET signal |
| --- | --- |
| CCCN(CCCNc1ccnc2cc(Cl)ccc12)Cc1c(C)n(C)n(-c2ccccc2)c1=O [SJ000522755] | 13.64 |
| CCCN(CCCNc1ccnc2cc(C(F)(F)F)ccc12)Cc1nccn1C [SJ000575170] | 7.124 |
| CCCN(CCCNc1c2ccc(Cl)cc2nc2ccc(OC)cc12)Cc1cccc(F)c1 [SJ000520945] | −90.13 |
| CCCN(CCCNc1ccnc2cc(Cl)ccc12)Cc1cccc(C)c1 [SJ000523041] | 28.55 |
| CCCN(CCCNc1c2ccc(Cl)cc2nc2ccc(OC)cc12)Cc1cccc(OC)c1O [SJ000520930] | −81.96 |
| COc1cccc(CN(CCCNc2ccnc3cc(Cl)ccc23)Cc2ccccc2)c1O [SJ000357465] | 13.17 |
| Fc1ccc(-c2ccc3c(NCCCNCc4ccco4)ccnc3c2)cc1 [SJ000311238] | 27.43 |
| COc1ccc2nc3cc(Cl)ccc3c(NCCCNCc3ccc(-c4cccc(Cl)c4)o3)c2c1 [SJ000522959] | −47.42 |
| CCCN(CCCNc1ccnc2cc(C(F)(F)F)ccc12)Cc1ccc2[nH]ccc2c1 [SJ000575171] | 32.89 |
| Clc1ccc2c(NCCCN(Cc3ccccc3)Cc3nccs3)ccnc2c1 [SJ000312676] | −4.148 |
| CCCN(CCCNc1ccnc2cc(Cl)ccc12)Cc1sccc1C [SJ000357439] | 19.73 |
| Clc1ccc2c(NCCCN(Cc3ccccc3)CC3CC=CCC3)ccnc2c1 (stereo not shown) [SJ000311182] | 16.09 |
| O=[N+]([O-])c1ccccc1-c1ccc(CNCCCNc2ccnc3cc(Cl)ccc23)o1 [SJ000523068] | 21.65 |
| Clc1ccc2c(NCCCNCc3nccs3)ccnc2c1 [SJ000521023] | 4.988 |
| FC(F)(F)Oc1ccc(CN(CCCNc2ccnc3cc(Cl)ccc23)Cc2ccccc2)cc1 [SJ000520460] | 25.05 |
| CCCN(CCCNc1ccnc2cc(C(F)(F)F)ccc12)Cc1cc(OC)ccc1O [SJ000361263] | 25.26 |
| CCCN(CCCNc1ccnc2cc(C(F)(F)F)ccc12)Cc1ccc[nH]1 [SJ000361255] | 30.66 |
| CCCN(CCCNc1ccnc2cc(Cl)ccc12)Cc1cccnc1Br [SJ000523006] | 13.31 |
| CCCN(CCCNc1c2ccc(Cl)cc2nc2ccc(OC)cc12)Cc1ccc(Cl)cc1Cl [SJ000520956] | 9.598 |
| Fc1ccccc1CN(CCCNc1ccnc2cc(Cl)ccc12)Cc1ccccc1 [SJ000361175] | 0.9627 |
| CCCN(CCCNc1ccnc2cc(Cl)ccc12)Cc1c(Cl)ccc(Cl)c1Cl [SJ000523046] | 17.75 |
